Assay results: patent US20250154169A1, “COMPOUNDS AND METHODS FOR MODULATING SPLICING” (REMIX THERAPEUTICS INC., priority 2021, published 2025)
Where a name gives a salt, the structure may show the parent alone.

What was measured:
Type in all cases: cell-based, human
HTT mRNA [1] = assay: Splicing RT-qPCR assay, HTT canonical (CJ) and alternative (AJ) junction mRNA; conditions: Homo sapiens, A673 or K562 cells, 24 hours compound treatment; for IC50: read-out: HTT CJ (IC50, decrease in canonical junction mRNA); for AC50: read-out: HTT AJ (AC50, increase in alternative junction mRNA)
Outline: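 A673 or K562 cells were treated 24 h at 37 °C with an 11-point 3-fold compound dilution series (top 10 uM, DMSO ≤0.25%). Lysates went to one-step RT-qPCR measuring canonical (CJ) and alternative-exon (AJ) junction transcripts, normalized to GAPDH, GUSB or PPIA.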

HTT mRNA [2] = assay: Splicing RT-qPCR gene panel, HTT canonical junction (CJ) mRNA; conditions: Homo sapiens, Tables 4A/4B, read-out: HTT (IC50, decrease in CJ mRNA, gene panel)
Outline: (§1)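 A673 or K562 cells were treated 24 h at 37 °C with an 11-point 3-fold dilution series (top 10 uM, ≤0.25% DMSO). Canonical-junction mRNA was measured in lysates by one-step RT-qPCR, normalized to GAPDH, GUSB or PPIA and DMSO control (2^(−ΔΔCt)), expressed as percentage response.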

Target C mRNA = assay: Splicing RT-qPCR gene panel, Target C canonical junction (CJ) mRNA; conditions: Homo sapiens, Tables 4A/4B, read-out: Target C (IC50, decrease in CJ mRNA, gene panel)
Outline: as §1

SMN2 mRNA = assay: Splicing RT-qPCR gene panel, SMN2 canonical junction (CJ) mRNA; conditions: Homo sapiens, Tables 4A/4B, read-out: SMN2 (IC50, decrease in CJ mRNA, gene panel)
Outline: as §1

SMILES	IC50 (HTT mRNA [1]; 24 h)	IC50 (HTT mRNA [2])	IC50 (Target C mRNA)	IC50 (SMN2 mRNA)	AC50 (HTT mRNA [1])	IC50 (HTT mRNA [1])
Cc1cn2cc(NC(=O)c3ccc(N4CCNCC4)c4cn(C)nc34)cc(F)c2n1 [Compound 143, N-{8-fluoro-2-methylimidazo[1,2-a]pyridin-6-yl}-2-methyl-4-(piperazin-1-yl) indazole-7-carboxamide]		< 100 nM	100 to 1000 nM	< 100 nM		
Cc1cn2cc(NC(=O)c3ccc(N4CCNC5(CC5)C4)c4cc(C)oc34)cc(F)c2n1 [Compound 194]		1000 to 10000 nM	> 10000 nM	< 100 nM		
Cc1cn2cc(NC(=O)c3ccc(N4CC5NC5C4)c4cn(C)nc34)cc(F)c2n1 (stereo not shown) [Compound 563, 4-{3,6-diazabicyclo[3.1.0]hexan-3-yl}-N-{8-fluoro-2-methylimidazo[1,2-a]pyridin-6-yl}-2-methylindazole-7-carboxamide]					100 to 1000 nM	100 to 1000 nM
Cc1cn2cc(NC(=O)c3ccc(N4CC(C)(C)NC(C)(C)C4)c4cc(C)oc34)cc(F)c2n1 [Compound 195]	> 10000 nM	> 10000 nM	> 10000 nM	< 100 nM	> 10000 nM	
Cc1cn2cc(NC(=O)c3ccc(N4CC[C@@H](NCc5cnc(Cl)nc5)C4)c4cn(C)nc34)cc(F)c2n1 [Compound 573, 4-[(3R)-3-{[(2-chloropyrimidin-5-yl)methyl]amino}pyrrolidin-1-yl]-N-{8-fluoro-2-methylimidazo[1,2-a]pyridin-6-yl}-2-methylindazole-7-carboxamide]	> 10000 nM				> 10000 nM	
Cc1cn2cc(NC(=O)c3ccc(N4CCNCC4)c4nc(C)oc34)cc(F)c2n1 [Compound 140]		1000 to 10000 nM	1000 to 10000 nM	100 to 1000 nM		
Cc1cn2cc(NC(=O)c3ccc(C4CCNCC4)c4cn(C)nc34)cc(F)c2n1 [Compound 208]		100 to 1000 nM	100 to 1000 nM	< 100 nM		
Cc1cn2nc(NC(=O)c3ccc(C4CCNCC4)c4cc(C)oc34)cc(C)c2n1 [Compound 118]		1000 to 10000 nM	> 10000 nM	100 to 1000 nM		
Cc1cn2cc(NC(=O)c3ccc(N4CC[C@@H](N5CCNCC5)C4)c4cn(C)nc34)cc(F)c2n1 [Compound 562, N-{8-fluoro-2-methylimidazo[1,2-a]pyridin-6-yl}-2-methyl-4-[(3R)-3-(piperazin-1-yl)pyrrolidin-1-yl]indazole-7-carboxamide hydrochloride]	> 10000 nM				> 10000 nM	
Cc1cc2c(N3CCNCC3)ccc(C(=O)Nc3cc(F)c4cn(C)nc4c3)c2o1 [Compound 217]	> 10000 nM	> 10000 nM	> 10000 nM	1000 to 10000 nM	> 10000 nM	
CCn1cc2c(N3CCC(NC4CC4)C3)cc(F)c(C(=O)Nc3cc(F)c4nc(C)cn4c3)c2n1 (stereo not shown) [Compound 569, 4-[3-(cyclopropylamino)pyrrolidin-1-yl]-2-ethyl-6-fluoro-N-{8-fluoro-2-methylimidazo[1,2-a]pyridin-6-yl}indazole-7-carboxamide]	> 10000 nM				1000 to 10000 nM	
CCNC1CCN(c2ccc(C(=O)Nc3cc(F)c4nc(C)cn4c3)c3oc(C)cc23)CC1 [Compound 196]		1000 to 10000 nM	1000 to 10000 nM	< 100 nM		
Cc1cn2cc(NC(=O)c3ccc(N4C5CNCC54)c4cn(C)nc34)cc(F)c2n1 (stereo not shown) [Compound 564, 4-{3,6-diazabicyclo[3.1.0]hexan-6-yl}-N-{8-fluoro-2-methylimidazo[1,2-a]pyridin-6-yl}-2-methylindazole-7-carboxamide]					100 to 1000 nM	100 to 1000 nM
CC1=CC2C(N3CCC(N(C)C)CC3)=CC=C(C(=O)Nc3cc(F)c4nc(C)cn4c3)C2O1 (stereo not shown) [Compound 198]		1000 to 10000 nM	1000 to 10000 nM	< 100 nM		
CCn1cc2c(N3CCNCC3)ccc(C(=O)Nc3cc(F)c4nc(C)c(F)n4c3)c2n1 [Compound 565, N-{3,8-difluoro-2-methylimidazo[1,2-a]pyridin-6-yl}-2-ethyl-4-(piperazin-1-yl) indazole-7-carboxamide; trifluoroacetic acid]	> 10000 nM				> 10000 nM	
CCn1cc2c(N3CCNCC3)ccc(C(=O)Nc3cc(F)c4ncccc4c3)c2n1 [Compound 575]	> 10000 nM				> 10000 nM	
Cc1cn2cc(NC(=O)c3ccc(N4CCC(C)(NC(C)C)C4)c4cn(C)nc34)cc(F)c2n1 (stereo not shown) [Compound 574]	> 10000 nM				> 10000 nM	

More lines, main results first:

IC50 (HTT mRNA [1]; 24 h)	IC50 (HTT mRNA [2])	IC50 (Target C mRNA)	IC50 (SMN2 mRNA)	SMILES	AC50 (HTT mRNA [1])	IC50 (HTT mRNA [1])
100 to 1000 nM	100 to 1000 nM	1000 to 10000 nM	< 100 nM	Cc1cn2cc(NC(=O)c3ccc(N4CCN(C)C(C)C4)c4cc(C)oc34)cc(F)c2n1 (stereo not shown) [Compound 191]	1000 to 10000 nM	
100 to 1000 nM	100 to 1000 nM	1000 to 10000 nM	< 100 nM	Cc1cn2cc(NC(=O)c3ccc(N4CCN5CCCC5C4)c4cc(C)oc34)cc(F)c2n1 (stereo not shown) [Compound 199]	100 to 1000 nM	
1000 to 10000 nM	1000 to 10000 nM	1000 to 10000 nM	< 100 nM	Cc1cn2cc(NC(=O)c3ccc(N4CCN(C)CC4)c4cc(C)oc34)cc(F)c2n1 [Compound 189]	1000 to 10000 nM	
1000 to 10000 nM	1000 to 10000 nM	100 to 1000 nM	< 100 nM	Cc1cn2cc(NC(=O)c3ccc(N4CCNCC4)c4cc(C)oc34)cc(F)c2n1 [Compound 142]	1000 to 10000 nM	
> 10000 nM				CCn1cc2c(N3CC[C@@H](NC)C3)ccc(C(=O)Nc3cc(Cl)c4nc(C)cn4c3)c2n1 [Compound 556, N-{8-chloro-2-methylimidazo[1,2-a]pyridin-6-yl}-2-ethyl-4-[(3R)-3-(methylamino)pyrrolidin-1-yl]indazole-7-carboxamide]	> 10000 nM	
1000 to 10000 nM				CCn1cc2c(N3CCNCC3)ccc(C(=O)Nc3cn4cc(C)nc4c(Oc4ccccc4)n3)c2n1 [Compound 566, 2-ethyl-N-{2-methyl-8-phenoxyimidazo[1,2-a]pyrazin-6-yl}-4-(piperazin-1-yl) indazole-7-carboxamide]	1000 to 10000 nM	
< 100 nM	< 100 nM	100 to 1000 nM	< 100 nM	Cc1cn2cc(NC(=O)c3ccc(N4CCNCC4)c4oc(C)nc34)cc(F)c2n1 [Compound 141]	< 100 nM	
1000 to 10000 nM	1000 to 10000 nM	> 10000 nM	< 100 nM	Cc1cn2cc(NC(=O)c3ccc(C4CCNCC4)c4ccoc34)cc(F)c2n1 [Compound 149]	1000 to 10000 nM	
1000 to 10000 nM	1000 to 10000 nM	100 to 1000 nM	< 100 nM	Cc1cn2cc(NC(=O)c3ccc(C4CCNCC4)c4cc(C)oc34)cc(F)c2n1 [Compound 145]	1000 to 10000 nM	
1000 to 10000 nM	1000 to 10000 nM	> 10000 nM	< 100 nM	Cc1cn2cc(NC(=O)c3ccc(N4CCNC(C)(C)C4)c4cc(C)oc34)cc(F)c2n1 [Compound 193]	1000 to 10000 nM	
1000 to 10000 nM				CCn1cc2c(N3CCC(N[C@H]4C[C@@H](O)C4)CC3)ccc(C(=O)Nc3cc(F)c4nc(C)cn4c3)c2n1 [Compound 559, 2-ethyl-N-{8-fluoro-2-methylimidazo[1,2-a]pyridin-6-yl}-4-(4-{[(1s,3s)-3-hydroxycyclobutyl]amino}piperidin-1-yl) indazole-7-carboxamide]	1000 to 10000 nM	
100 to 1000 nM				CCn1cc2c(N3CCC(N)(CC)CC3)cc(F)c(C(=O)Nc3cc(F)c4nc(C)cn4c3)c2n1 [Compound 557, 4-(4-amino-4-ethylpiperidin-1-yl)-2-ethyl-6-fluoro-N-{8-fluoro-2-methylimidazo[1,2-a]pyridin-6-yl}indazole-7-carboxamide]	100 to 1000 nM	
1000 to 10000 nM	1000 to 10000 nM	1000 to 10000 nM	100 to 1000 nM	Cc1cn2nc(NC(=O)c3ccc(N4CCNCC4)c4cc(C)oc34)cc(C)c2n1 [Compound 148]	1000 to 10000 nM	
1000 to 10000 nM				CCn1cc2c(N3CCC(N[C@H]4C[C@H](O)C4)CC3)ccc(C(=O)Nc3cc(F)c4nc(C)cn4c3)c2n1 [Compound 560, 2-ethyl-N-{8-fluoro-2-methylimidazo[1,2-a]pyridin-6-yl}-4-(4-{[(1r,3r)-3-hydroxycyclobutyl]amino}piperidin-1-yl) indazole-7-carboxamide]	1000 to 10000 nM	
1000 to 10000 nM				Cc1cn2cc(NC(=O)c3ccc(N4CC[C@@H](NC56CC(C5)C6)C4)c4cn(C)nc34)cc(F)c2n1 [Compound 568, 4-[(3R)-3-{bicyclo[1.1.1]pentan-1-ylamino}pyrrolidin-1-yl]-N-{8-fluoro-2-methylimidazo[1,2-a]pyridin-6-yl}-2-methylindazole-7-carboxamide]	1000 to 10000 nM	
100 to 1000 nM				Cc1cn2cc(NC(=O)c3c(F)cc(N4CC[C@@H](NC5CC5)C4)c4cn(C)nc34)cc(F)c2n1 [Compound 571, 4-[(3R)-3-(cyclopropylamino)pyrrolidin-1-yl]-6-fluoro-N-{8-fluoro-2-methylimidazo[1,2-a]pyridin-6-yl}-2-methylindazole-7-carboxamide]	100 to 1000 nM	
